# Patent US10610104B2, “Gastrointestinal tract detection methods, devices and systems” (priority 2016, dated 2020)
# B1: Lipopolysaccharide Binding Protein (LBP): Lipopolysaccharide Binding Protein, binds with high affinity to lipid A, the common moiety of LPS (protein, UniProt P18428 26-481, looked up)
# Lipopolysaccharide-binding …: ANPGLVARITDKGLQYAAQEGLLALQSELLRITLPDFTGDLRIPHVGRGRYEFHSLNIHSCELLHSALRPVPGQGLSLSISDSSIRVQGRWKVRKSFFKLQGSFDVSVKGISISVNLLLGSESSGRPTVTASSCSSDIADVEVDMSGDLGWLLNLFHNQIESKFQKVLESRICEMIQKSVSSDLQPYLQTLPVTTEIDSFADIDYSLVEAPRATAQMLEVMFKGEIFHRNHRSPVTLLAAVMSLPEEHNKMVYFAISDYVFNTASLVYHEEGYLNFSITDDMIPPDSNIRLTTKSFRPFVPRLARLYPNMNLELQGSVPSAPLLNFSPGNLSVDPYMEIDAFVLLPSSSKEPVFRLSVATNVSATLTFNTSKITGFLKPGKVKVELKESKVGLFNAELLEALLNYYILNTFYPKFNDKLAEGFPLPLLKRVQLYDLGLQIHKDFLFLGANVQYMRV
# Columns and labels:
# C. albicans = test: OD600 assay under simulated GI conditions, fungal contamination with or without anti-fungal recovery media; format: cell-based; conditions: TSB containing 2.5 mg/L Amphotericin B; C. albicans 1×10^3 CFU/mL; FaSSIF-V2; 4 hour incubation
# Description: Experiments were performed in order to simulate an ingestible device that contains sterile media that is inoculated with a sample of fluid from the GI tract and incubated in transit. The experiments were designed to evaluate whether the assay could predict total bacterial counts over a dynamic range of 10^3 CFU/mL to 10^7 CFU/mL under a series of different conditions of pH, […], fungal strains, mucin concentrations. The samples were also incubated under conditions of shear forces and temperature that simulate conditions of an ingestible device in transit within the GI tract.
# Gram-negative (Escherichia coli ATCC 25922) and Gram-positive (Staphylococcus epidermidis ATCC 12228) bacterial cultures were diluted in a standard growth media (TSB) over a dynamic range of 10^7 CFU/mL to 10^3 CFU/mL. The assay utilized […], under shear (110 rpm) and at body temperature (37° C.) over a 4 hour incubation period to simulate transit of an ingestible device within the GI tract. Experiments were performed under various conditions as indicated including: different pH levels (6.5, 7.0 and 7.8); […]; […] […] Experiments were conducted in quintuplicate. All testing was completed in simulated jejunal fluid (FaSSIF-V2; available from BioRelevant (London, UK) Cat: V2FA501 Lot: 02-1408-07, pH 6.5) using a 50 μL sample volume and a 4 hour incubation period. […]
# cyclophilin = cyclophilin (Homo sapiens, UniProt P62937); conditions: voclosporin versus cyclosporine A; cited from earlier work
# [1] = tested on: inflammatory bowel disease (IBD); conditions: numerous murine models; cited from earlier work
# human IL-6 = human IL-6 (Homo sapiens, UniProt P05231); conditions: cited from earlier work
# [2] = binding to lipid A, the common moiety of LPS; cited from earlier work
# human IL-6, sequence (P05231 30-212): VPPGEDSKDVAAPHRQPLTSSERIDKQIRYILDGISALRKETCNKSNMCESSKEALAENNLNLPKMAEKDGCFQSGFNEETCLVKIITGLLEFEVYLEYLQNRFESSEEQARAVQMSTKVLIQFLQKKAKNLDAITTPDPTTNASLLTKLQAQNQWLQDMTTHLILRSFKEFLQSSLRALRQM
# cyclophilin, sequence (P62937 whole entry): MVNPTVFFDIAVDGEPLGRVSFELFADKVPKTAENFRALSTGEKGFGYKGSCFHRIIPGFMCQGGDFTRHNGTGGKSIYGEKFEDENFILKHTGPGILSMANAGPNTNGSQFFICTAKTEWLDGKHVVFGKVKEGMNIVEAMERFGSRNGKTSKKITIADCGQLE
molecule,measurement,setting,value
"C[C@@H]1[C@H](O)[C@@H](C)/C=C/C=C/C=C/C=C/C=C/C=C/C=C/[C@H](O[C@@H]2O[C@H](C)[C@@H](O)[C@H](N)[C@@H]2O)C[C@@H]2O[C@](O)(C[C@@H](O)C[C@@H](O)[C@H](O)CC[C@@H](O)C[C@@H](O)CC(=O)O[C@H]1C)C[C@H](O)[C@H]2C(=O)O [amphotericin B, Amphotericin B]",background fungal growth (plate counts and optical density),C. albicans,reduced the background fungal growth
C=C/C=C/C[C@@H](C)[C@@H](O)[C@H]1C(=O)N[C@@H](CC)C(=O)N(C)CC(=O)N(C)[C@@H](CC(C)C)C(=O)N[C@@H](C(C)C)C(=O)N(C)[C@@H](CC(C)C)C(=O)N[C@@H](C)C(=O)N[C@H](C)C(=O)N(C)[C@@H](CC(C)C)C(=O)N(C)[C@@H](CC(C)C)C(=O)N(C)[C@@H](C(C)C)C(=O)N1C [voclosporin],binding affinity for cyclophilin,cyclophilin,comparable
"L-glutamic acid polymer with L-alanine, L-lysine and L-tyrosine, acetate (salt) [Glatiramer acetate]",effect on inflammation and pathological manifestations of IBD,[1],reduce inflammation and ameliorate the pathological manifestations
"siltuximab: a chimeric, human-murine, immunoglobulin (Ig) Gκ mAb that binds and neutralizes human IL-6",binds and neutralizes human IL-6,human IL-6,high affinity and specificity
B1,Kd,[2],1 nM
